Results reported in patent US20220040255A1, “CHEMOTHERAPEUTIC REMODELING OF THE GUT MICROBIOME” (THE SCRIPPS RESEARCH INSTITUTE, priority 2018, published 2022).
Where a SMILES comes first, the peptide text is derived from it. [ ]: non-standard residue; d: D form.

Tested on: intestinal absorption of cholesterol
Assay: fecal dual-isotope cholesterol absorption assay
Assay type: in vivo, LDLr−/− mice
Conditions: 180 μM in drinking water, 2-wk treatment, WD
Method: In vivo cholesterol absorption assay. This experiment was carried out courtesy of Carol S. Ryan, Debra J. Search, Ricardo A. Garcia, and David A. Gordon at Bristol Myers Squibb (Hopewell, N.J., USA). To assess the effects of c[wLwReQeR] (SEQ ID NO:11) on intestinal absorption of cholesterol, male LDLr^−/− mice (Jackson Laboratories) ranging from 8-10 weeks old were acclimated to single housing in standard solid bottom bedded cages for at least one week at BMS facilities. During the acclimation period, the mice were fed a chow diet ad libitum. At the start of the treatment period and for the duration of the study, mice were switched to high-fat, high-cholesterol Western diet (Research Diets D12108C) containing 1.25% cholesterol and 20% fat ad libitum. The peptide was administered in the drinking water ad libitum as a solution with 1% sucrose at 180 μM (˜35 mg/kg/day). […]
Following a 2-wk treatment period, cholesterol absorption was measured using a dual fecal isotope ratio method. […] Plasma (˜20 μl) was added to 5 ml of Opti-fluor Scintillation cocktail (Packard Bioscience #6013199) and counted on ^3H and ^14C channels to evaluate cholesterol efflux. Radioactivity in feces was analyzed as follows: for each animal, feces recovered over the 48 hours was dried overnight at 50° C. and 0.1 gram of dried feces was transferred to a glass tube. […]

For `CC(C)C[C@@H]1NC(=O)[C@@H](Cc2c[nH]c3ccccc23)NC(=O)[C@H](CCCNC(=N)N)NC(=O)[C@@H](CCC(=O)O)NC(=O)[C@H](CCC(N)=O)NC(=O)[C@@H](CCC(=O)O)NC(=O)[C@H](CCCNC(=N)N)NC(=O)[C@@H](Cc2c[nH]c3ccccc23)NC1=O` [c[wLwReQeR]] (cyclo([dW]L[dW]R[dE]Q[dE]R)), which “absorption of dietary cholesterol” value is on record?
The value was “did not reduce”.
